From patent US20210330756A1, “Acetylation of Miro1” (University of South Carolina, priority 2020, published 2021)

Experiments:
[1] = system: axonal mitochondrial transport in DRG neurons; assay: FRAP of Mito-GFP in distal axons of DRG neurons; assay type: cell-based, rat; settings: for effect on MAG-Fc-dependent decrease in Mito-GFP recovery / mitochondrial transport: pretreatment: TubA 10 μM, Y27632 10 μM or BAPTA-AM 3 μM
Description: MAG or Aggrecan exposures were performed as bath application or on coated substrates. For bath application, dissociated DRGs were cultured for 48 h and treated with 25 μg/ml of MAG-Fc (R&D Systems; 538-MG), 25 μg/ml Fc control (R&D Systems; 110-HG), or 10 μg/ml of Aggrecan (Sigma-Aldrich; A1960) for 4 h. Cultures were pretreated with either Ca^2+ chelator BAPTA-AM (3 μM; Sigma-Aldrich; A1076), ROCK inhibitor Y27632 (10 μM; Sigma-Aldrich; SCM075), HDAC6 inhibitor TubA (10 μM; R&D Systems; 6270), Thapsigargin (1 μM; Sigma-Aldrich; T9033), Rho Activator II (1 μg/ml; Cytoskeleton; CNO3), or equivalent volume DMSO 30 min before MAG-Fc, Aggrecan, or controls. For substrate-bound experiments, adult DRGs were cultured on glass bottom dishes (Greiner) that were coated with 25 μg/ml Aggrecan in addition to the laminin/poly-D-lysine substrate.
Mito-KR- and Mito-GFP-expressing DRG neurons were used for FRAP analyses at 48-72 h after transfection. To evaluate mitochondrial motility in Mito-KR-expressing neurons, Mito-KR signals were photobleached using continual exposure to an argon laser set at 594 nm for 30 s (100% laser power) The bleached ROI was then monitored for recovery using an argon laser set at 580 nm every 10 s over 16 min (13% laser power). For FRAP analyses with Mito-GFP, GFP signals were photobleached in a 50 μm ROI using an argon laser set at 488 nm every 10 s for 16 min (70% laser power). The same excitation was used for post-bleach imaging to assess recovery every 10 s for 16 min. For axon shaft FRAP experiments in Mito-GFP-expressing neurons, ROIs of ˜50 μm in length (without branches) were imaged >100 μm proximal to the growth cone. Prebleach, bleach, and post-bleach sequences were the same as for Mito-GFP above. In all cases, neurons were imaged over 40 s or more to acquire baseline Mito-KR or Mito-GFP signals before photobleaching using an argon laser (580 nm at 13% power for Mito-KR and 488 nm at 31% power for Mito-GFP).
Vesicle trafficking was quantified using differential ImageJ Difference Tracker Plug-in (Andrews et al., 2010). 50-80-μm long unbranched axon segments at approximately the mid-region between growth cone and cell body were analyzed. Kymographs were generated using ImageJ Kymograph Plug-in. For analyses of axon retraction in the CALI experiment, the distance from the distal tip of the growth cone in the pre-CALI image sequence was used as the baseline (t=1 min). The distance between the growth tip at end of the post-CALI sequence and the pre-CALI baseline was measured using LAS-X software. Movement of ≥0.5 μm toward the axon shaft was counted as retracted. Fluorescence emission of the Mito-KR post-CALI was analyzed using ImageJ. For normalizing intensities across FRAP image sets, fluorescence intensity at each time point was scaled using the LAS-X FRAP module so that the residual fluorescence signal at t=0 min (post-bleach) was set at 0 and the prebleach intensity was set at 100% for each bleached ROI. For axon shaft FRAP analyses, each 50-μm bleached ROI was divided into […], and the fluorescence intensity recovery was measured as described above. EMs at 1,900× and 4,800× magnification across the crosssectional surface of each sciatic nerve were used for in vivo analyses of mitochondrial content. A minimum of 75 unmyelinated axons was analyzed for each nerve. All unmyelinated axons from each analyzed image were included for quantitative studies. The total number of mitochondria was determined in each unmyelinated axon in the field and was divided by the total number of unmyelinated axons for all subjects. […] was determined by changes in JC-1 fluorescence. JC-1 exists either as a green fluorescent monomer at depolarized membrane potentials or as an orange-red fluorescent aggregate at hyperpolarized membrane potentials. […]

Ac-histone H4 = assay: Immunoblotting for Ac-histone H4 in adult DRG neurons (HDAC specificity); assay type: cell-based, rat
Description: We tested for this specificity in the adult DRG neurons from above by immunoblotting. […] (A) Number of mitochondria in growth cones after exposing DRG cultures to 10 μM TubA versus vehicle (control) for 1 h is shown as average fold-change in number of mitochondria per growth cone±SEM (n=13 axons across three culture preparations; *, P≤0.05 by one-way ANOVA with Bonferroni post hoc analysis). (B) Representative EMs of Remak bundles (arrowheads) in naive Sciatic nerve and nerves after 2 h vehicle (DMSO) or TubA injection are shown. Arrows indicate mitochondria in the unmyelinated axons. Note that a Schwann cell nucleus (asterisk) is seen in the Remak bundle for DMSO image but not the other two micrographs (scale bar=3 μm). (C) Quantification of number of mitochondria per unmyelinated axon from EM images as in B is shown as average±SEM (n≥5; *****, P≤0.0001 by one-way ANOVA with Bonferroni post hoc analysis). (D-F) Quantification for indicated parameters for mitochondrial transport in sciatic nerve in vivo using tetramethylrhodamine, ethyl ester, perchlorate to visualize mitochondria is shown.
For immunoblotting, protein lysates or immunoprecipitates were denatured by boiling in Laemmli sample buffer, fractionated by SDS-PAGE, and transferred to nitrocellulose membranes. Blots were blocked for 1 h at room temperature with 5% nonfat dry milk in TBS with 0.1% Tween 20 (TBST). Primary antibodies diluted in 5% BSA in TBST were added to the membranes and incubated overnight at 4° C. with rocking. Primary antibodies consisted of rabbit anti-Myc (1:2,000; Cell Signaling; 71D10), rabbit anti-RHOT1 antibody (1:1,000; Aviva Systems Biology; ARP44817 P050), rabbit anti-HDAC6 antibody (1:2,000; Cell Signaling; 7558), rabbit anti-ERK1 (1:5,000; Abcam; ab32537), and affinity-purified custom rabbit anti-Miro1-AcK105 (1:2,500; Twiss laboratory, see above) antibodies. For the anti-Miro1-AcK105 antibody, preimmune and test-bleed sera were used at 1:1,000 dilutions to initially evaluate for specificity. After washing in TBST, blots were incubated with HRP-conjugated anti-rabbit IgG antibodies (1:5,000; Jackson Immunoresearch) diluted in blocking buffer for 1 h at room temperature. Signals were detected using ECL Prime (GE Healthcare) after extensive washing.

## CC(=O)OCOC(=O)CN(CC(=O)OCOC(C)=O)c1ccccc1OCCOc1ccccc1N(CC(=O)OCOC(C)=O)CC(=O)OCOC(C)=O [BAPTA-AM]
[1]; 3 μM
  basal Mito-GFP FRAP recovery after the first 5 min: no different than recovery in untreated cultures
  basal Mito-GFP FRAP recovery in distal axons, first 5 min after bleach: increased recovery
[1]; 3 μM BAPTA-AM + 1 μg/ml Rho activator, 960 s after bleach
  effect on decrease in axonal mitochondrial transport seen upon direct activation of RhoA: completely abrogated the decrease in axonal mitochondrial transport
[1]; MAG-Fc, Mito-GFP FRAP
  additive or synergistic effect when combined with 10 μM TubA: No significant additive effects
[1]; 960 s after bleach
  effect on MAG-Fc-dependent decrease in Mito-GFP recovery / mitochondrial transport: prevented the MAG-Fc attenuation of axonal mitochondrial transport

## O=C(CCCN1C(=O)c2cccc3cccc(c23)C1=O)NO [Nullscript]
Ac-histone H4; 6.3 μM
  Ac-histone H4 levels: no change in Ac-histone H4 levels

## O=C(CCCCCN1C(=O)c2cccc3cccc(c23)C1=O)NO [Scriptaid]
Ac-histone H4; Scriptaid, concentration not given
  Ac-histone H4 levels: clear increase in Ac-histone H4 levels

## C[C@@H](N)[C@H]1CC[C@H](C(=O)Nc2ccncc2)CC1 [Y27632]
[1]; MAG-Fc, Mito-GFP FRAP
  additive or synergistic effect when combined with 3 μM BAPTA-AM: no additive or synergistic effect
  additive or synergistic effect when combined with 10 μM TubA: no additive or synergistic effect
[1]; aggrecan 10 μg/ml, Mito-GFP FRAP
  additive effect when combined with 10 μM TubA: no significant additive effects
[1]; aggrecan 10 μg/ml, TubA 10 μM or Y27632 10 μM
  effect on aggrecan-dependent decrease in Mito-GFP recovery: prevented the aggrecan dependent decrease in Mito-GFP recovery
[1]; 960 s after bleach
  effect on MAG-Fc-dependent decrease in Mito-GFP recovery / mitochondrial transport: similarly blocked the decline in mitochondrial transport
[1]; 960 s after bleach, listed as ROCK inhibitor
  effect on MAG-Fc-dependent decrease in Mito-GFP recovery / mitochondrial transport: similarly prevented the MAG-dependent decrease in mitochondrial transport
